Reference: US20250214973A1, “1,4,5-TRISUBSTITUTED-1,2,3-TRIAZOLES AND USES THEREOF” (UNIVERSITY OF PUERTO RICO, priority 2022, published 2025)

Columns and labels:
[1] = system: human mammary epithelial cells (HMEC); experiment: Cell viability assay (MTT); assay type: cell-based; settings: 0-1000 nM
Method: Cells were treated with 4c at concentrations ranging from 0-1000 nM. Cell viability was assessed by a MTT assay. n=2.
(§1) Equal number of cells were seeded in a 24 well plate and incubated with vehicle or compounds according to this disclosure at concentrations between 1 and 0.001 nM for 72 and 120 hrs. Using CellTiter 96 Non-Radioactive Cell Proliferation Assay (Promega, Corp.) according to manufactures' instructions, formazan was used as an indicator of viable cells at an absorbance 570 nm in a Tecan Microplate Reader M100. Data was calculated as fold change from vehicle and fitted using the 4′parameter logic nonlinear regression model in GraphPad Prism software. (n=3 biologic replicates: with 3 technical replicates each).

MDA-MB-231 [2] = experiment: Initial screening, inhibition of migration (wound gap); assay type: cell-based; settings: Homo sapiens, at 10 μM, read-out: Inh. of migration
Method: In addition, the inhibition of migration of MDA-MB-231 was determined via the following procedure:
Prior to assays, cells were grown until 80-90% confluence was observed. We used a 75 cm^2 flask for 2.6×10^5 cells/mL in 10 mL and for a 25 cm^2 flask 1.44×10^5 cells/mL in 5 mL. The cells were washed with PBS to remove all traces of FBS. We added 2 mL for a 25 cm^2 flasks or 4 mL for a 75 cm^2 flasks trypsin, and incubated 5-10 min at 37° C. At the end of the incubation time, cells were re-suspended and counted with hemocytometer using 1:2 dilutions with Trypan blue. Subsequently, cell viability was calculated. In a 12 well tissue culture plate, we used the plastic pattern to draw a fine space with a fine marker on the bottom of the plate. Cells were seeded at 1.5-2.2×10^5 cells/mL in 1 mL and incubated for 24 h. Cells were then rinsed with PBS and incubated in starving media (0.5% FBS) overnight. All controls and drugs were tested in triplicate. The negative control for each drug was prepared according to the drug's DMSO concentration. […] The wound was made using a sterile pipette tip of 200 μL. Cells were then rinsed very gently with media without FBS and media with negative controls was added. After a 24 h incubation, the gap distance was evaluated using the software Lumera Infinity Analyze 6.4.0. Pictures were taken at 0, 8, 12 and 24 h using a 10× objective in an Inverted Laboratory Microscope Leica DM IL LED, and an Infinity1-3 3.1 Megapixel USB 2.0 camera CMOS. The percentage of migration was calculated using the following formula: […]

MDA-MB-231 [3] = experiment: Cell viability assay (MTT); assay type: cell-based; settings: Homo sapiens, MDA-MB-231
Method: Cells plated at equal density were treated at 500 nM of compounds. […]
Cells plated at equal density were treated at 250 nM of 4c at 250 nM.
Data from 3 biologic replicates each with 2 technical replicates. Four parameter dose-response curves generated using GraphPad Prism are shown.
Cell viability relative to vehicle (100%) is shown.
as §1, with “Equal number of cells were seeded in a 24 well plate and incubated with vehicle or compounds according to this disclosure at concentrations between 1 and 0.001 nM for 72 and 120 hrs.” left out
A range of compounds were tested by MTT assays for cell viability in MDA-MB-231 triple negative breast cancer (TNBC) cells and MDA-MB-435 HER2++ cancer cells.

MCF-7 = experiment: Initial screening, SRB assay GI50; assay type: cell-based; settings: Homo sapiens, MCF7, 48 hrs
Method: (§2) For initial screening, the GIso of compounds 4a-4h in the cell lines MDA-MB-231, MDA-MB-435 and MCF-7 was determined via the SRB-assay for 48 hrs as follows:
(§3) A stock solution of compounds was prepared at 50 mM in 100% DMSO. For cells preparation, a flask of 75 cm^2 or 25 cm^2 were used for 2.6×10^5 cells/mL or 1.44×10^5 cells/mL, respectively, with an 80-90% of confluence. Cells were washed with PBS and trypsinized. The concentration of cells was determined using a 1:2 dilutions with Trypan Blue and a hemocytometer. After cell count, the concentration was adjusted to have a 7.0-10.0×10^4 cells/mL. Approximately 100 μL of cells suspension, compounds, control positive and control negative were added in triplicates to a 96 well plate. Positive control used was doxorubicin, and the negative control was DMSO 0.1%. All compounds (4a-h) at 50, 25, 12.5, 6.3, and 1.6 μM were incubated with cells at 37° C. for 48 hrs. For fixation, cold TCA 50% was used and incubated at 4° C. for 1 h. Wells were washed and dried prior to tincture with 100 μL of SRB 0.4%. To remove excess of SRB, acetic acid was used. For analysis, TRIS-BASE Solution (pH=10.5) was used and shaken prior to reading using an ELISA reader at 540 nm and the software SoftMax Pro 4.8. For each compound, 50% growth inhibition (GI50) was calculated from Sigmoidal dose-response curves (variable-slope) that were generated with data obtained from experiments carried out in triplicates (GI50 values were generated with GraphPad Prism V. 6.02, GraphPad Software, Inc.).

MDA-MB-435 = experiment: Initial screening, SRB assay GI50; assay type: cell-based; settings: Homo sapiens, 48 hrs, read-out: MDA-MB435 GI50
Method: as §2, §3

MDA-MB-231 [4] = experiment: Initial screening, SRB assay GI50; assay type: cell-based; settings: Homo sapiens, 48 hrs
Method: as §2, §3

Vav2 binding to Rac1 = biological target: T1, Vav2 binding to Rac1 (Homo sapiens, UniProt P63000, G15A); experiment: Rac1 GEF assay, Rac1(G15A) pulldown; settings: 250 nM, MDA-MB-231 lysates
T1 construct: purchased Cell Biolabs, San Diego; CA; host or cells: Vav2 from MDA-MB-231 cell lysate
Method: GST-Rac1 (G15A) beads were pre-incubated with vehicle (0.1% DMSO), or 8 μM EHop-016, or 250 nM Compound 4c for 1 hour followed by incubation with MDA-MB-231 cell lysates (equal total protein). Representative Western blot for Rac1(G15A) or pulldowns immunostained for Vav2 is shown (n=3).
MDA-MB-231 cells in culture medium were lysed in 1% Triton X-100, 20 mM HEPES, pH 7.4, 150 mM NaCl, 5 mm MgCl2, and protease inhibitors and processed. Equal amounts of protein from cleared lysates were incubated for 1 h at 4° C. with glutathione-agarose beads conjugated to GST-Rac1(G15A) nucleotide-free mutant (Cell Biolabs, San Diego. CA) that were preincubated (for 1 h) with vehicle or 8 μm EHop-016 or 0.25 μM Compound 4c. The beads were washed, and the lysates and pull-downs were immunoblotted for Tiam-1, Trio, Ect2, p-REX, or Vav2.

**Q.** Which results are given for `CCn1c2ccccc2c2cc(-n3nnc(C(O)c4cccc(OC)c4)c3-c3ccccc3)ccc21` (centres unmarked) [Compound 4c, (1-(9-ethyl-9H-carbazol-3-yl)-5-phenyl-1H-1,2,3-triazol-4-yl) (3-methoxyphenyl) methanol]?
**A.** effect on non-transformed HMEC viability [1]: did not affect; inhibition at 10 µM (MDA-MB-231 [2]): 50.8 ± 11.4%; cytotoxicity at 0.5 µM (MDA-MB-231 [3]; 500 nM, 72 hours, read-out: inhibition of MDA-MB-231 cell viability): < 50%; GI50 (MDA-MB-231 [3]; summary over breast cancer cell lines, read-out: GI50 for breast cancer cell viability inhibition): ~300 nM; GI50 (MCF-7): 3200 nM; GI50 (MDA-MB-435): 1600 nM; GI50 (MDA-MB-231 [4]): 17200 nM; inhibition at […] (Vav2 binding to Rac1): ~80%
